# Laboratory results: PubChem BioAssay AID1508612
# Test: passive permeability, PAMPA, ADME assay (AID 1508612)
# Settings: pH 7.4, 30.0 min, 50.0 µM
row,SMILES,Papp
1,O=C(O)c1ccnc2cc(C(OCCN3CCCCC3)c3ccccc3Cl)[nH]c12 (stereo not drawn),< 1 ×10⁻⁶ cm/s
2,COc1ccc(S(=O)(=O)N(C(=O)C(C)C)c2ccc3oc(=O)sc3c2)cc1,658 ×10⁻⁶ cm/s
3,Cc1ccc(NS(=O)(=O)c2cc3c(cc2N[C@H](C)CO)NC(=O)CC3)cc1C,273 ×10⁻⁶ cm/s
4,O=C1Nc2c(Cl)cccc2/C1=C\c1cc(Cl)c(O)c(Cl)c1,58.8 ×10⁻⁶ cm/s
5,O=C(NCc1cccnc1)c1nc(-c2ccc(Cl)nc2)c2cnccn12,238 ×10⁻⁶ cm/s
6,Cc1nn(Cc2ccc(Cl)cc2)c(C)c1NC(=O)c1cc(-c2ccc3c(c2)OCO3)on1,836 ×10⁻⁶ cm/s
7,O=c1c(-c2ccc(O)cc2)coc2cc(O)ccc12,< 1 ×10⁻⁶ cm/s
8,NC(=O)N1CCCC(C(=O)N2CCCN(c3ccc(F)cc3)CC2)C1 (stereo not drawn),111 ×10⁻⁶ cm/s
9,CCc1nnc(NC(=O)c2nc(S(=O)(=O)Cc3ccc(C)cc3)ncc2Cl)s1,32.9 ×10⁻⁶ cm/s
10,COc1ccc(NC2=C(c3ccc(C(F)(F)F)cc3)C(=O)c3ccccc32)cc1,82 ×10⁻⁶ cm/s
11,Cc1cnc(-c2ccccc2C(C)C)nc1NCC1CCN(c2cccnc2)CC1,> 1000 ×10⁻⁶ cm/s
12,Cc1cc(NC(=O)c2ccc(NC(=O)Cc3ccc(Cl)c(Cl)c3)cc2)no1,> 1000 ×10⁻⁶ cm/s
13,O=C(Nc1nc(-c2ccc(F)cc2)cs1)c1ccncc1NS(=O)(=O)c1ccccc1Cl,> 1000 ×10⁻⁶ cm/s
14,CCCN(C(=O)c1sc2nc3n(c(=O)c2c1C)CCCC3)c1ccccc1C,> 1000 ×10⁻⁶ cm/s
15,Cc1ccc(-c2cc(C(=O)Nc3cccc(S(N)(=O)=O)c3)c3ccccc3n2)cc1C,11.8 ×10⁻⁶ cm/s
16,O=[S+]([O-])(Nc1ccccc1)c1ccc(NCc2cccc(Cl)c2F)cc1,383 ×10⁻⁶ cm/s
17,CC(=O)c1c(C)c(C(=O)Nc2cccc([S+](=O)([O-])N(C)C)c2)n(C)c1C,295 ×10⁻⁶ cm/s
18,CCn1c(C(=O)NCCc2ccc(OC)cc2)cc2sccc21,721 ×10⁻⁶ cm/s
19,CC(C)c1c(-c2ccccc2)nc2c(C#N)c[nH]n2c1=O,9.91 ×10⁻⁶ cm/s
20,CN(C)C(=O)c1nc(-c2ccc(Cl)cc2Cl)c2cnccn12,> 1000 ×10⁻⁶ cm/s
21,Cn1c(=O)c2[nH]c(=O)[nH]c2n(C)c1=O,1.71 ×10⁻⁶ cm/s
22,Cc1cccc(Nc2nc(NCc3ccco3)c3ccccc3n2)c1,730 ×10⁻⁶ cm/s
23,CC1CCc2cc(F)ccc2N1C(=O)CSc1nnc2c(n1)[nH]c1ccccc12 (stereo not drawn),> 1000 ×10⁻⁶ cm/s

row,SMILES,Papp
1,Cc1cnc(-c2ccccc2C2COC2)nc1NCC1CCN(c2cccnc2)CC1,3.48 ×10⁻⁶ cm/s
2,N#Cc1ccc(N2N=C3c4ccc(C(=O)O)cc4CC[C@@H]3[C@@H]2C2CCCC2)cc1Cl,272 ×10⁻⁶ cm/s
3,CC(=O)c1ccc(-c2csc(N3CCC(C(N)=O)CC3)n2)cc1,300 ×10⁻⁶ cm/s
4,Cc1cc(C)nc(NC(=S)N2CCN(c3nccc(C(F)(F)F)n3)CC2)c1,> 1000 ×10⁻⁶ cm/s
5,CN1CCCC1CCOC(c1cc2nccc(C(=O)O)c2[nH]1)c1ccccc1Cl (stereo not drawn),1.1 ×10⁻⁶ cm/s
6,Cc1ccc(Nc2nc(-c3ccncc3)nc3ccccc23)cc1F,15.5 ×10⁻⁶ cm/s
7,O=S(=O)(c1ccccc1)N1CCN(c2nc(-c3ccc(Br)cc3)cs2)CC1,205 ×10⁻⁶ cm/s
8,Cc1ccc(S(=O)(=O)Nc2cnccc2C(=O)Nc2cccc3ccccc23)cc1,288 ×10⁻⁶ cm/s
9,O=C(c1ccc2c(c1)ncn2-c1ccccc1)N1CCCCC1,472 ×10⁻⁶ cm/s
10,CCOC(=O)c1ccc(N2C(=O)c3n[nH]c(-c4cccs4)c3C2c2ccc(Cl)cc2Cl)cc1 (stereo not drawn),85.8 ×10⁻⁶ cm/s
11,CC(=O)c1c(C)[nH]c(C(=O)Nc2cccc([S+](=O)([O-])Nc3ccncc3)c2)c1C,1.51 ×10⁻⁶ cm/s
12,CCN1C(=O)c2ccccc2S(=O)c2ccc(NC(=O)Cc3ccc(OC)cc3)cc21 (stereo not drawn),> 1000 ×10⁻⁶ cm/s
13,CNc1nc2c(s1)C(c1ccc(Cl)cc1)CC(=O)N2 (stereo not drawn),308 ×10⁻⁶ cm/s
14,OCCNc1ncnc2c1ncn2[C@@H]1O[C@@H](CO)[C@H](O)[C@@H]1O,< 1 ×10⁻⁶ cm/s
15,COc1ccc(CNc2ccc(S(=O)(=O)Nc3nccs3)cc2)cc1O,19.3 ×10⁻⁶ cm/s
16,CN(C)C(=O)c1cccc(-c2csc(N3CCC(C(N)=O)CC3)n2)c1,30.5 ×10⁻⁶ cm/s
17,CC(=O)N1CCN(c2nc(-c3ccc(Br)cc3)cs2)CC1,995 ×10⁻⁶ cm/s
18,O=C(c1ccc(-c2ncc3cnc(-c4ccccc4)cn23)cc1)N1CCS(=O)(=O)CC1,45.6 ×10⁻⁶ cm/s
19,CC(C)(C)c1ccc(C(=O)N2CC(=O)Nc3ccc(F)cc3C2c2ccc(F)cc2)cc1 (stereo not drawn),> 1000 ×10⁻⁶ cm/s
20,COc1cc2nccc(Oc3ccc(NC(=O)Nc4cc(C)on4)c(Cl)c3)c2cc1OC,328 ×10⁻⁶ cm/s
21,Cc1ccccc1-c1nc(NCc2ccc(-c3cccnc3)cc2)c2ccccc2n1,547 ×10⁻⁶ cm/s
22,O=C(Nc1ccc(S(=O)(=O)Nc2nccs2)cc1)c1cccc2ccccc12,11.9 ×10⁻⁶ cm/s
23,CC(C)CC(=O)Nc1n[nH]c2c1CN(C(=O)C1CCN(C)CC1)C2(C)C,< 1 ×10⁻⁶ cm/s

row,SMILES,Papp
1,Nc1nc2c(s1)C(c1c(Cl)cccc1Cl)CC(=O)N2 (stereo not drawn),5.54 ×10⁻⁶ cm/s
2,CC[C@@]1(O)C(=O)OCc2c1cc1n(c2=O)Cc2c-1nc1ccccc1c2CCNC(C)C,< 1 ×10⁻⁶ cm/s
3,CCOC(=O)c1ccc(-c2ccc3ncnc(NCCc4cnc[nH]4)c3c2)o1,> 1000 ×10⁻⁶ cm/s
4,CC(=O)c1ccc(N2CCN(S(=O)(=O)c3cc4c(cc3Cl)NC(=O)C4)CC2)cc1,558 ×10⁻⁶ cm/s
5,Cn1ccc2c(C(=O)NCC3CCC(=O)N3)nc(-c3ccccc3C#N)cc21 (stereo not drawn),265 ×10⁻⁶ cm/s
6,CCNC(=O)c1coc(COc2ccc3c(c2)C(c2ccc(F)cc2)N(C(=O)CC(C)C)CC3)n1 (stereo not drawn),938 ×10⁻⁶ cm/s
7,CCOc1ccc(NC(=O)c2nc(S(=O)(=O)Cc3ccccc3F)ncc2Cl)cc1,882 ×10⁻⁶ cm/s
8,COc1cc2ncnc(Nc3ccc(Oc4ccccc4)cc3)c2cc1OC,> 1000 ×10⁻⁶ cm/s
9,Cc1noc(C)c1-c1ccc2ncnc(N3CCC(C(=O)O)CC3)c2c1,1.5 ×10⁻⁶ cm/s
10,Cc1ccccc1OCC(O)CO (stereo not drawn),44.4 ×10⁻⁶ cm/s
11,Clc1ccccc1-c1nc(NCc2ccc(-c3cccnc3)cc2)c2ccccc2n1,944 ×10⁻⁶ cm/s
12,NC(=O)C1CCN(c2nnc(-c3ccc(Br)cc3)s2)CC1,525 ×10⁻⁶ cm/s
13,COc1ccccc1-c1nc(NCc2ccc(-c3cccnc3)cc2)c2ccccc2n1,980 ×10⁻⁶ cm/s
14,COc1ccccc1CNc1ccc(N2CCCCC2)cc1,> 1000 ×10⁻⁶ cm/s
15,CC(C)(C)OC(=O)N1CCN(c2ccc(NCc3ccc(-c4ccc(C#N)cc4)o3)cc2)CC1,338 ×10⁻⁶ cm/s
16,Cn1cc(Br)c(C2N=C(Nc3nc4ccccc4o3)NC3=C2C(=O)CCC3)n1 (stereo not drawn),> 1000 ×10⁻⁶ cm/s
17,CC(C)COc1ccc(-c2csc(N3CCC(C(N)=O)CC3)n2)cc1,48.4 ×10⁻⁶ cm/s
18,O=C(Nc1cccnc1)c1cccs1,56.5 ×10⁻⁶ cm/s
19,COc1cccc(-n2ncc3c2CCCC3NC(=O)c2ccccn2)c1 (stereo not drawn),> 1000 ×10⁻⁶ cm/s
20,Cc1ccc(S(=O)(=O)Nc2cnccc2C(=O)Nc2nc(C(=O)O)cs2)cc1,< 1 ×10⁻⁶ cm/s
21,COc1ccc2c(c1)CCc1c-2n[nH]c1C(=O)N1CCc2c(nc3cc(-c4ccccc4)[nH]n3c2=O)C1,15.8 ×10⁻⁶ cm/s

# Second part, the compound after the results:
row,Papp,SMILES
1,30.9 ×10⁻⁶ cm/s,COc1ccc(NC(=O)c2[nH]c(C)c(C(C)=O)c2C)cc1S(=O)(=O)Nc1cccc(C#N)c1
2,236 ×10⁻⁶ cm/s,O=C(C1CCN(c2nc(-c3ccc(Br)cc3)cs2)CC1)N1CCOCC1
3,> 1000 ×10⁻⁶ cm/s,O=C(NCc1ccccc1)c1cn2cc(-c3ccccc3)sc2n1
4,506 ×10⁻⁶ cm/s,Cc1ccc(-c2[nH]n3c(=O)c4c(nc3c2C)CCCC4)cc1
5,109 ×10⁻⁶ cm/s,NC(=O)C1CCN(c2nc(-c3ccccc3[N+](=O)[O-])cs2)CC1
6,69.7 ×10⁻⁶ cm/s,Cc1nc(N)nc2ccccc12
7,< 1 ×10⁻⁶ cm/s,Fc1ccc(Nc2nc(-c3ccccc3)cc(-c3ccncc3)n2)cc1F
8,54.9 ×10⁻⁶ cm/s,Cc1ccc(S(=O)(=O)Nc2cnccc2C(=O)Nc2nc(-c3cnn(C)c3)cs2)cc1
9,26.4 ×10⁻⁶ cm/s,COc1ccc(-c2cc3nccn3c(Nc3ncccc3C(N)=O)n2)cc1OC
10,1.1 ×10⁻⁶ cm/s,CCOC(=O)c1nnc(N[S+](=O)([O-])c2ccc(NC(=O)Cc3ccc(Cl)c(Cl)c3)cc2)s1
11,> 1000 ×10⁻⁶ cm/s,Cc1ccc(S(=O)(=O)Nc2ccccc2C(=O)Nc2cnc(-c3ccccc3)cn2)cc1
12,< 1 ×10⁻⁶ cm/s,O=C(O)c1cn(C2CC2)c2cc(N3C[C@@H]4C[C@H]3CN4)c(F)cc2c1=O
13,366 ×10⁻⁶ cm/s,COc1ccc(OC)c(CNc2ncnc3onc(C)c23)c1
14,143 ×10⁻⁶ cm/s,CNc1ccc(Br)cc(C(=O)/C=C/c2ccc(OC)cc2OC)c1=O
15,516 ×10⁻⁶ cm/s,CC(O)(C#Cc1ccc2c(c1)N(c1nc(N)ncc1Cl)CC2)c1nccs1 (stereo not drawn)
16,6.34 ×10⁻⁶ cm/s,CCOC(=O)c1ccc(N2C(=O)c3n[nH]c(-c4ccco4)c3C2c2ccc(C)cc2)cc1 (stereo not drawn)
17,< 1 ×10⁻⁶ cm/s,O=C(O)CCC(=O)Nc1nc(-c2ccccc2)cs1
18,106 ×10⁻⁶ cm/s,CC(C)(C)n1cnc2cc(C(=O)N3CCCCC3)ccc21
19,317 ×10⁻⁶ cm/s,Cn1ccc2c(C(=O)NCc3cccnc3)nc(-c3ccc(CO)cc3)cc21
20,225 ×10⁻⁶ cm/s,O=C([C@@H]1CCCN(c2ccc3[nH]c(C4(n5cc(Cl)cn5)CC4)nc3n2)C1)N1CCCC1
21,693 ×10⁻⁶ cm/s,COc1ccccc1-c1csc(N2CCC(C(N)=O)CC2)n1

row,Papp,SMILES
1,288 ×10⁻⁶ cm/s,CN(Cc1ccccc1)C(=O)c1ccc(S(=O)(=O)Nc2ccccc2)cc1
2,> 1000 ×10⁻⁶ cm/s,COc1cccc(CNc2ccc(S(=O)(=O)Nc3ccccc3)cc2)c1O
3,282 ×10⁻⁶ cm/s,N=c1c2c(ncn1-c1ccccc1)Oc1ccc3ccccc3c1C2c1ccc2c(c1)CCO2 (stereo not drawn)
4,34.2 ×10⁻⁶ cm/s,Cc1cccc(-c2noc([C@@H]3Cc4nc[nH]c4CN3C(=O)CC(C)(C)CC(=O)O)n2)c1
5,179 ×10⁻⁶ cm/s,CN(C)S(=O)(=O)c1cccc(NC(=O)c2ccc[nH]2)c1
6,183 ×10⁻⁶ cm/s,COc1ccc2[nH]c(S(=O)Cc3ncc(C)c(OC)c3C)nc2n1 (stereo not drawn)
7,819 ×10⁻⁶ cm/s,CC(C)(N)C(=O)N[C@H](COCc1ccccc1)C(=O)N1CCC2(CC1)CN(S(C)(=O)=O)c1ccccc12
8,> 1000 ×10⁻⁶ cm/s,CCCOC(=O)c1ccc(Oc2c(-c3ccc(O)cc3O)n[nH]c2C)cc1
9,> 1000 ×10⁻⁶ cm/s,CC(C)(C)C(=O)N1CCN(c2nccc(Nc3ccccc3Cl)n2)CC1
10,> 1000 ×10⁻⁶ cm/s,CCC(CC)C(=O)NC[C@@H]1C=C(C)[C@H](Cc2nc3c(C)cccc3[nH]2)C[C@H]1C(C)C
11,996 ×10⁻⁶ cm/s,CN(C)CCOC1=Cc2ccccc2Sc2ccc(Cl)cc21
12,< 1 ×10⁻⁶ cm/s,c1cc(OCCN2CCCCC2)cc(-c2n[nH]c3ccc(-c4ncn[nH]4)cc23)c1
13,> 1000 ×10⁻⁶ cm/s,CC(C)c1nc2oc3c(NCCN(C)C)ncnc3c2c2c1COC(C)(C)C2
14,> 1000 ×10⁻⁶ cm/s,Cc1nc(NCc2ccco2)nc2c1C(=O)CC(C)C2 (stereo not drawn)
15,961 ×10⁻⁶ cm/s,OCC(O)CCO/N=C1/C(c2c(O)[nH]c3ccccc23)=Nc2ccccc21 (stereo not drawn)
16,> 1000 ×10⁻⁶ cm/s,CCOC(=O)c1[nH]c(C)c(CCC(=O)N2CCN(c3cccc(C)c3C)CC2)c1C
17,< 1 ×10⁻⁶ cm/s,Nc1ccc(CNc2ccc([S+](=O)([O-])Nc3nccs3)cc2)c(O)c1
18,> 1000 ×10⁻⁶ cm/s,CCN(CC)CCOc1ccc2c(=O)c3ccc(Cl)cc3n(CCN(CC)CC)c2c1
19,> 1000 ×10⁻⁶ cm/s,Cc1ccc(N2CCC(CNc3nc(-c4ccccc4C(C)C)ncc3F)CC2)cn1
20,381 ×10⁻⁶ cm/s,O=C(c1cc2ccccc2[nH]1)N1CCc2c(n(Cc3cccnc3)n(CCc3ccccc3)c2=O)C1
